Measured values as given in article PMC10318527, “Utilization of dietary mixed-linkage β-glucans by the Firmicute Blautia producta” (The Journal of Biological Chemistry, 2023).
Entries after “also recorded” stand apart in the source; their conditions may differ.

How the values were obtained:
BPGH16 mutant W362A = experiment: Kinetics of BPGH16 mutant W362A (DNS assay); type: biochemical, Blautia producta ATCC 27340
Protocol: (§1) The residues R331, L358, E379, D381, E384, W362, and H398 of BpGH16MLG were mutated to Ala by the Q5Site-Directed Mutagenesis Kit (New England Biolabs, UK, catalogue no. E0554S). Wild-type plasmid BpGH16-pET28a(+) was used as a template, and mutagenic forward and reverse primers were developed using NEBaseChanger with subtle modifications (Table S4). A 25 μl PCR cocktail was prepared for mutating each residue. The final concentration of Q5 Hot Start High-Fidelity 2X Master Mix was 1X, each primer was at 0.5 μM, the amount of used template was 20 ng, and the rest of the volume was made up of nuclease-free water. PCR was executed using the following conditions-initial denaturation was performed at 98 °C for 1 min, for each cycle-denaturation, annealing, and extension (72 °C) were set for 10 s, 20 s, and 7 min, respectively. […] The mutant protein was then expressed as per the protocol mentioned earlier, and kinetics were performed with barley β-glucan.
(§2) Reactions were performed in 100 μl volume mixture using recombinant enzyme (final concentration at 0.1 mg/ml) in 50 mM sodium phosphate buffer (pH 5.7) at 37 °C for 1 h of incubation. […] Enzymatic assays were determined with 3,5- dinitrosalicylic acid (DNS) assay ([85]). […] Consequently, recorded the developed color spectrophotometrically at 575 nm ([85]). […]

BPGH16 mutant L358A = experiment: Kinetics of BPGH16 mutant L358A (DNS assay); type: biochemical, Blautia producta ATCC 27340
Protocol: as §1, §2

B. producta ΔSBP = experiment: Growth of B. producta ΔSBP mutant on barley β-glucan; type: cell-based, Blautia producta; details: minimal medium containing 1% barley β-glucan
Protocol: The pBS423-ΔrepA- Δsbp was constructed by inserting 905 bp 5' and 1151 bp 3' flanking regions but lacking 1.2 kb core region of BpSBPMLG. It was inserted between Pst1 sites of the vector. GenScript Biotech (Singapore) PTE LTD carried out synthesis of the 2.2 kb flanking region and insertion into pBS423-ΔrepA. Competent cells of B. producta were prepared after inoculating 1 % primary culture into 300 ml GAM containing glucose (0.2%), sucrose (0.5 M), and glycine (1%). It was incubated until A600 reached 0.5-0.7 at 37 °C under anaerobic conditions. Afterward, cultures were transferred into 50 ml centrifuge tubes and centrifuged at 3000 × g for 20 min. The supernatant was discarded, and pellets were washed three times with washing solution (0.5 M sucrose and 10% glycerol) and stored at -80°C in aliquots of 50 µl.
The first cross-over event for knocking out was achieved by integrating 0.2 to 1 µg pBS423-ΔrepA- Δsbp in 50 µl competent cells of B. producta through electroporation using a condition of 25 µF, 2.0 kV, and 200 Ω. Gene Pulser Xcell (Bio-Rad Laboratories, Hercules, CA, USA) was used for this purpose. The treated cells were instantly mixed with 1 ml anaerobically pre-incubated GAM medium containing 0.2 % glucose, 0.5 M sucrose, 1 % glycine, 20 mM MgCl2.6H2O, and 2 mM CaCl2. […]

BPGH16 mutant R331A = experiment: Kinetics of BPGH16 mutant R331A (DNS assay); type: biochemical, Blautia producta ATCC 27340
Protocol: The residues R331, L358, E379, D381, E384, W362, and H398 of BpGH16MLG were mutated to Ala by the Q5Site-Directed Mutagenesis Kit (New England Biolabs, UK, catalogue no. E0554S). Wild-type plasmid BpGH16-pET28a(+) was used as a template, and mutagenic forward and reverse primers were developed using NEBaseChanger with subtle modifications (Table S4). A 25 μl PCR cocktail was prepared for mutating each residue. The final concentration of Q5 Hot Start High-Fidelity 2X Master Mix was 1X, each primer was at 0.5 μM, the amount of used template was 20 ng, and the rest of the volume was made up of nuclease-free water. PCR was executed using the following conditions-initial denaturation was performed at 98 °C for 1 min, for each cycle-denaturation, annealing, and extension (72 °C) were set for 10 s, 20 s, and 7 min, respectively. A total of 25 cycles were performed, and the final extension was for 5 min 5 μl PCR products were loaded on 0.8% agarose gel to conform to the amplification of the mutagenic gene. Ligation of PCR products and cleavage of methylated template DNA was then performed using 5 μl KLD reaction buffer and 1 μl KLD enzyme cocktail at RT for 1 h. It was then transformed into E. coli TOP-10 cells and plasmids were isolated. The obtained plasmids were sequenced to confirm the mutation at the desired location. Once mutation was confirmed in a gene, the mutant plasmid was transformed into Rosetta (DE3) cells for protein expression. The mutant protein was then expressed as per the protocol mentioned earlier, and kinetics were performed with barley β-glucan.
Reactions were performed in 100 μl volume mixture using recombinant enzyme (final concentration at 0.1 mg/ml) in 50 mM sodium phosphate buffer (pH 5.7) at 37 °C for 1 h of incubation. Then, reactions were terminated by boiling for 5 min. Enzymatic assays were determined with 3,5- dinitrosalicylic acid (DNS) assay ([85]). In brief, 0.05 g Na2SO3 and 1 g DNS were mixed in a 50 ml water-containing reagent bottle and stirred about 6 h using a magnetic stirrer. After that, 200 μl phenol was added and made up to 100 ml. A working solution of DNS was prepared by adding 50 μl glucose (20% (w/v) stock) in prepared 100 ml of reagent mixtures and immediately used for experiments without adding NaOH. 80 μl DNS reagent was added to the reaction mixtures and incubated at 100 °C for 10 min, followed by ice-cooling for 10 min. Consequently, recorded the developed color spectrophotometrically at 575 nm ([85]). A standard curve generated by different concentrations of maltose was used for determining released reducing sugars in each case.

Substance: Barley β-glucan
- kcat (BPGH16 mutant W362A): 0 s⁻¹
- kcat (BPGH16 mutant L358A): 0 s⁻¹
- growth of B. producta ΔSBP compared to wild-type strain (B. producta ΔSBP): significant retardation in growth; also recorded: retarded growth
- increase in Km (BPGH16 mutant R331A; R331A versus native enzyme): < 2 fold
- reduction in kcat (BPGH16 mutant R331A; R331A versus native enzyme): ~1.3 fold
- Km (BPGH16 mutant R331A; mutant R331A, DNS assay): 0.35 ± 0.05 mg/mL
- kcat (BPGH16 mutant R331A; mutant R331A, DNS assay): 48 ± 0.8 s⁻¹
